Patent US20260015332A1, “SYNTHESIS METHOD AND APPLICATION OF BENZOTHIASELENAZOLE-1-OXIDE COMPOUND AND DERIVATIVE THEREOF” (priority 2022, published 2026)

Molecular target: M^pro protein of SARS-CoV-2 (3CLpro, P132H mutation) (Severe acute respiratory syndrome coronavirus 2, UniProt P0DTD1, P3395H)
Format: biochemical

In the case of `O=S1(c2ccccc2)=N[Se]c2ccccc21` (stereo not shown) [Compound 1, 1-phenylbenzo[d][1,3,2]thiaselenazole-1-ketone], the “inhibitory activity against the M^pro protein of SARS-CoV-2 compared with ebselen (EBS) control” value is reported as “superior to that of the ebselen (EBS) control group”.
